Data taken from PubChem BioAssay AID1963961 (Molecular Pharmacology Branch, DTP, NCI, 2024).
One block for each compound: values may come before it.

System: K98450-129-R-PDC multicell spheroids, viability
Test: Anticancer human tumor K98450-129-R-PDC patient-derived colon adenocarcinoma cell line growth inhibition [PI3K]
Conditions: for IC50: curve of first compound; for viability, T/C: stronger effect = lower value
How it was run: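 We assembled tumor spheroids that included a stromal compartment of HUVEC and MSCs, then exposed them to targeted agents alone and together with PI3K pathway inhibitors. Concentration series descended by half-log from clinically achievable Cmax levels. Viability served as the endpoint.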

[1] = second compound 0.0316 µM, first compound 0.00316 µM
[2] = second compound 0.0316 µM, first compound 0.01 µM
[3] = second compound 0.0316 µM, first compound 0.0316 µM
[4] = second compound 0.0316 µM, first compound 0.1 µM
[5] = second compound 0.0316 µM, first compound 0.316 µM
[6] = second compound 0.0316 µM, first compound 1 µM
[7] = second compound 0.1 µM, first compound 0.00316 µM
[8] = second compound 0.1 µM, first compound 0.01 µM
[9] = second compound 0.1 µM, first compound 0.0316 µM
[10] = second compound 0.1 µM, first compound 0.1 µM
[11] = second compound 0.1 µM, first compound 0.316 µM
[12] = second compound 0.1 µM, first compound 1 µM
[13] = second compound 0.316 µM, first compound 0.00316 µM
[14] = second compound 0.316 µM, first compound 0.01 µM
[15] = second compound 0.316 µM, first compound 0.0316 µM
[16] = second compound 0.316 µM, first compound 0.1 µM
[17] = second compound 0.316 µM, first compound 0.316 µM
[18] = second compound 0.316 µM, first compound 1 µM
[19] = second compound 1 µM, first compound 0.00316 µM
[20] = second compound 1 µM, first compound 0.01 µM
[21] = second compound 1 µM, first compound 0.0316 µM
[22] = second compound 1 µM, first compound 0.1 µM
[23] = second compound 1 µM, first compound 0.316 µM
[24] = second compound 1 µM, first compound 1 µM
[25] = second compound 3.16 µM, first compound 0.0316 µM
[26] = second compound 3.16 µM, first compound 0.1 µM
[27] = second compound 3.16 µM, first compound 0.316 µM
[28] = second compound 3.16 µM, first compound 1 µM
[29] = second compound 10 µM, first compound 0.0316 µM
[30] = second compound 10 µM, first compound 0.1 µM
[31] = second compound 10 µM, first compound 0.316 µM
[32] = second compound 10 µM, first compound 1 µM
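Note: spheroids exposed to agents for seven days before read-out.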

IC50 (second compound 0.00316 µM): > 1000 nM
IC50 (second compound 0.01 µM): > 1000 nM
IC50 (second compound 0.0316 µM): > 1000 nM
IC50 (second compound 0.1 µM): > 1000 nM
IC50 (second compound 0.316 µM): > 1000 nM
IC50 (second compound 1 µM): < 3.16 nM
SMILES: CCN1CCN(Cc2ccc(Nc3ncc(F)c(-c4cc(F)c5nc(C)n(C(C)C)c5c4)n3)nc2)CC1 + COc1c(OCCCN2CCOCC2)ccc2c3n(c(=NC(=O)c4cnc(N)nc4)nc12)CCN3
viability, T/C (second compound 0.00316 µM, first compound 0.00316 µM): 99.6%
viability, T/C (second compound 0.00316 µM, first compound 0.01 µM): 108%
viability, T/C (second compound 0.00316 µM, first compound 0.0316 µM): 88.9%
viability, T/C (second compound 0.00316 µM, first compound 0.1 µM): 86.9%
viability, T/C (second compound 0.00316 µM, first compound 0.316 µM): 87.5%
viability, T/C (second compound 0.00316 µM, first compound 1 µM): 79.4%
viability, T/C (second compound 0.01 µM, first compound 0.00316 µM): 117%
viability, T/C (second compound 0.01 µM, first compound 0.01 µM): 93.7%
viability, T/C (second compound 0.01 µM, first compound 0.0316 µM): 81.6%
viability, T/C (second compound 0.01 µM, first compound 0.1 µM): 94%
viability, T/C (second compound 0.01 µM, first compound 0.316 µM): 71.1%
viability, T/C (second compound 0.01 µM, first compound 1 µM): 75.8%
viability, T/C [1]: 78.3%
viability, T/C [2]: 64.5%
viability, T/C [3]: 81.9%
viability, T/C [4]: 66.8%
viability, T/C [5]: 72.8%
viability, T/C [6]: 110%
viability, T/C [7]: 71.6%
viability, T/C [8]: 64.9%
viability, T/C [9]: 85.6%
viability, T/C [10]: 57.3%
viability, T/C [11]: 64.2%
viability, T/C [12]: 70.7%
viability, T/C [13]: 53.1%
viability, T/C [14]: 64.6%
viability, T/C [15]: 57.3%
viability, T/C [16]: 46.2%
viability, T/C [17]: 64.7%
viability, T/C [18]: 60%
viability, T/C [19]: 56%
viability, T/C [20]: 45%
viability, T/C [21]: 45.8%
viability, T/C [22]: 47.8%
viability, T/C [23]: 59.8%
viability, T/C [24]: 65.2%

IC50 (second compound 0.0316 µM): > 10000 nM
IC50 (second compound 0.1 µM): > 10000 nM
IC50 (second compound 0.316 µM): > 10000 nM
IC50 (second compound 1 µM): > 10000 nM
IC50 (second compound 3.16 µM): > 10000 nM
IC50 (second compound 10 µM): > 10000 nM
SMILES: CNC(=O)c1ccc(N2C(=S)N(c3ccc(C#N)c(C(F)(F)F)c3)C(=O)C2(C)C)cc1F + Cc1nc(NC(=O)N2CCCC2C(N)=O)sc1-c1ccnc(C(C)(C)C(F)(F)F)c1
viability, T/C [3]: 108%
viability, T/C [4]: 93%
viability, T/C [5]: 106%
viability, T/C [6]: 94.2%
viability, T/C (second compound 0.0316 µM, first compound 3.16 µM): 109%
viability, T/C (second compound 0.0316 µM, first compound 10 µM): 111%
viability, T/C [9]: 111%
viability, T/C [10]: 92.2%
viability, T/C [11]: 102%
viability, T/C [12]: 89.2%
viability, T/C (second compound 0.1 µM, first compound 3.16 µM): 104%
viability, T/C (second compound 0.1 µM, first compound 10 µM): 109%
viability, T/C [15]: 97%
viability, T/C [16]: 96.2%
viability, T/C [17]: 94.8%
viability, T/C [18]: 97.3%
viability, T/C (second compound 0.316 µM, first compound 3.16 µM): 105%
viability, T/C (second compound 0.316 µM, first compound 10 µM): 109%
viability, T/C [21]: 90.5%
viability, T/C [22]: 91.2%
viability, T/C [23]: 87.5%
viability, T/C [24]: 91.4%
viability, T/C (second compound 1 µM, first compound 3.16 µM): 101%
viability, T/C (second compound 1 µM, first compound 10 µM): 99%
viability, T/C [25]: 81.1%
viability, T/C [26]: 88.2%
viability, T/C [27]: 87.1%
viability, T/C [28]: 81.8%
viability, T/C (second compound 3.16 µM, first compound 3.16 µM): 92%
viability, T/C (second compound 3.16 µM, first compound 10 µM): 83.7%
viability, T/C [29]: 70.2%
viability, T/C [30]: 69.2%
viability, T/C [31]: 74.7%
viability, T/C [32]: 71.1%
viability, T/C (second compound 10 µM, first compound 3.16 µM): 79%
viability, T/C (second compound 10 µM, first compound 10 µM): 73.5%

IC50 (second compound 0.0316 µM): > 1000 nM
IC50 (second compound 0.1 µM): > 1000 nM
IC50 (second compound 0.316 µM): > 1000 nM
IC50 (second compound 1 µM): > 1000 nM
IC50 (second compound 3.16 µM): > 1000 nM
IC50 (second compound 10 µM): > 1000 nM
SMILES: CCN1CCN(Cc2ccc(Nc3ncc(F)c(-c4cc(F)c5nc(C)n(C(C)C)c5c4)n3)nc2)CC1 + CC(Nc1ncnc2nc[nH]c12)c1cc2cccc(Cl)c2c(=O)n1-c1ccccc1
viability, T/C [1]: 111%
viability, T/C [2]: 102%
viability, T/C [3]: 109%
viability, T/C [4]: 83.5%
viability, T/C [5]: 81.6%
viability, T/C [6]: 87%
viability, T/C [7]: 106%
viability, T/C [8]: 107%
viability, T/C [9]: 91.9%
viability, T/C [10]: 87.7%
viability, T/C [11]: 87%
viability, T/C [12]: 95%
viability, T/C [13]: 101%
viability, T/C [14]: 108%
viability, T/C [15]: 94.6%
viability, T/C [16]: 90.3%
viability, T/C [17]: 89.7%
viability, T/C [18]: 89.1%
viability, T/C [19]: 93.1%
viability, T/C [20]: 92.5%
viability, T/C [21]: 95.9%
viability, T/C [22]: 89.4%
viability, T/C [23]: 84.8%
viability, T/C [24]: 102%
viability, T/C (second compound 3.16 µM, first compound 0.00316 µM): 95.1%
viability, T/C (second compound 3.16 µM, first compound 0.01 µM): 91.6%
viability, T/C [25]: 81.1%
viability, T/C [26]: 90.8%
viability, T/C [27]: 82.4%
viability, T/C [28]: 83.2%
viability, T/C (second compound 10 µM, first compound 0.00316 µM): 86%
viability, T/C (second compound 10 µM, first compound 0.01 µM): 83.5%
viability, T/C [29]: 81.9%
viability, T/C [30]: 82.5%
viability, T/C [31]: 86.1%
viability, T/C [32]: 78.2%
